Experimental data from patent US8394395B2, “Use of a cosmetic composition for the care of fatty skin” (Laboratories Clarins, priority 2006, dated 2013).

Legend:
[1] = test system: human sebocytes (Hs 917.T, ATCC line No. CRL-7669); assay: Sebocyte proliferation, M.T.T. colorimetric test; type: cell-based; conditions: 72 hours of culture, versus reference medium
Method: (§1) A line of human sebocytes (Hs 917.T, ATCC line No. CRL-7669) was cultured in Dulbecco's modified Eagle's medium with 4.5 g/l of D-glucose and 10% of fetal calf serum. These adherent cells have a polygonal morphology and large nuclei.
Proliferation was evaluated by means of a validated colorimetric test, the M.T.T. test (dimethyl thiazolyl diphenyl tetrazolium) (according to Mosmann, J. Immunol. Meth. 1983 65: 55-63). This compound is metabolized by the mitochondria, to give blue formazan crystals, the amount of which depends directly on the activity of the mitochondrial succinate dehydrogenase enzyme and on the number of living cells.
As a result of this, the proliferation is measured by colorimetery (570 nm).
The proliferation was therefore evaluated according to the following conditions: • sebocytes in reference medium; • sebocytes cultured in the presence of the reference medium supplemented with chrysin at the 2 concentrations of 10^−3% and 5×10^−3%.
For each condition performed in sextuplet, the proliferation was analyzed after 72 hours of culture.

[2] = test system: human sebocytes (Hs 917.T, ATCC line No. CRL-7669); assay: Sebocyte viability (MTT exclusion test); type: cell-based; conditions: chrysin concentrations of 10^−3% and 5×10^−3%; compared with conventional culture medium
Method: as §1, with “nuclei. Firstly, we verified the viability (MTT exclusion test) of the sebocytes in the presence of chrysin at various concentrations, in comparison with their conventional culture medium.” for “nuclei.”

O=c1cc(-c2ccccc2)oc2cc(O)cc(O)c12 [chrysin, 5,7-dihydroxyflavone]
difference in proliferation of human sebocytes in culture ([1]; chrysin concentration 5×10^−3%): −18.4%
difference in proliferation of human sebocytes in culture ([1]; chrysin concentration 10^−3%): −10.5%
cytotoxicity on sebocytes (viability) [2]: did not induce any cytotoxicity
